Source: US20230172961A1 (priority 2020, published 2023)

Molecular target: SARS-CoV-2 exonuclease complex (nsp14 and nsp10) (Severe acute respiratory syndrome coronavirus 2, UniProt P0DTD1)
Test: Exonuclease resistance of RNA terminated with nucleotide analogues, MALDI-TOF MS
Assay type: biochemical
Settings: for relative resistance to excision by the exonuclease: analogue at the 3′ terminus of RNA, compared with other 3′ termini; for cleavage of extended RNA after 5 min exonuclease treatment / cleavage of extended RNA after 30 min exonuclease treatment: RNA extended by SARS-CoV-2 RdRp (FIGS. 48, 49)

Substance | relative resistance to excision by the exonuclease | relative resistance to excision by the exonuclease (listed as 2′-O-Me-CTP) | cleavage of extended RNA after 5 min exonuclease treatment | cleavage of extended RNA after 5 min exonuclease treatment (listed as SFV) | cleavage of extended RNA after 30 min exonuclease treatment | cleavage of extended RNA after 30 min exonuclease treatment (listed as SFV)
2′-O-methyl CMP | resistant to excision | much more full-length RNA remaining | – | – | – | –
Sofosbuvir | more protected from cleavage | – | minimal appearance of cleavage products | some reduction in the height | significant amount of the intact Sofosbuvir-RNA remaining | still some SFV extended RNA remaining
UMP | – | – | substantial cleavage | – | completely disappears | –
